Laboratory results from EP1145713A1, “TELOMERASE INHIBITORS” (KYOWA HAKKO KOGYO CO., LTD., priority 1999, dated 2000).

Assays:
[1] = test system: human leukemia cell line CCRF-CEM; assay: Telomerase inhibitory activity in cell system (Test Example 3, TRAP assay of cell extract); assay type: cell-based
Description: After a test compound was allowed to contact with human leukemia cell line CCRF-CEM for 7 days, a cell extraction solution was prepared and the enzyme activity was measured by a known method (U.S. Patent 5,629,154). That is, the cell extraction solution was prepared using a buffer solution containing 0.5% CHAPS {3-[(3-cholamidopropyl)dimethylammonio]-1-propanesulfonate}. using the extraction solution, TRAP (Telomeric Repeat Amplification Protocol) assay was carried out (TRAPEZE™ ELISA Telomerase Detection Kit, manufactured by Oncor Co.) Inhibitory ratio was calculated based on the ratio of the enzyme activity in the extraction solution from the cells treated with the test compound relative to the enzyme activity in the extraction solution from the test compound-untreated cells.

[2] = test system: human leukemia cell line CCRF-CEM; assay: Induction of the reduction of telomere in cell system (Test Example 4); assay type: cell-based
Description: After a test compound was. allowed to contact with human leukemia cell line CCRF-CEM for 21 days, a chromosomal DNA was extracted and the telomere length was measured by a known method (Biotechniques, 23: 476-484 (1997)). That is, the extracted chromosomal DNA was adsorbed on a membrane, and hybridization was carried out by using a labeled oligonucleotide probe having a sequence complementary to the telomere sequence. The signal of the label on the membrane proportional to the telomere DNA length was detected and digitalized.

[3] = contact for 7 days, 8.9, 13 µmol/L
[4] = contact for 21 days, 13, 30 µmol/L
[5] = contact for 7 days, 2, 4.4 µmol/L
[6] = contact for 21 days, 2, 4.4 µmol/L

Compound: CC1=C(CCC(=O)O)c2cc3[nH]c(cc4nc(cc5[nH]c(cc1n2)c(CCC(=O)O)c5C)C(C)=C4CCC(=O)O)c(CCC(=O)O)c3C [Compound 1]
- cytotoxicity [1, 3]: no remarkable cytotoxicity was shown
- inhibition of intracellular telomerase [1, 3]: inhibited intracellular telomerase
- cytotoxicity [2, 4]: no remarkable cytotoxicity was shown
- telomere reduction [2, 4]: induced telomere reduction

Compound: C[n+]1ccc(-c2c3nc(c(-c4cc[n+](C)cc4)c4ccc([nH]4)c(-c4cc[n+](C)cc4)c4nc(c(-c5cc[n+](C)cc5)c5ccc2[nH]5)C=C4)C=C3)cc1 [TMPyP4]
- cytotoxicity [1, 5]: no remarkable cytotoxicity was shown
- inhibition of intracellular telomerase [1, 5]: did not inhibit telomerase
- cytotoxicity ([1]; contact for 7 days, concentrations higher than 4.4 µmol/L): no cellular protein was recovered at higher concentrations because of the cytotoxicity
- cytotoxicity [2, 6]: no remarkable cytotoxicity was shown
- telomere reduction [2, 6]: did not induce telomere reduction
- cytotoxicity ([2]; contact for 21 days, concentrations higher than 4.4 µmol/L): no chromosomal DNA was recovered at higher concentrations because of the cytotoxicity
